From paper PMC7932537, “Quantitative profiling of protease specificity” (PLoS Computational Biology, 2021)

Assays:
MMP-2 = assay: Substrate phage display with NGS: relative probability (RP) of P3-P1' tetramer clusters; format: biochemical, human; conditions: for corresponding MMP2 relative probability (RP): MMP9 tetramers from unique substrates, RP of same tetramer for MMP2; for relative probability (RP) of matching tetramer: P3-P1' tetramer matching the MS detected MMP2 cleavage sequence, RP_above_4.5; for avg_RP: MMP2 - no binning
MMP-9 = assay: as above; format: biochemical, human; conditions: for MMP9 relative probability (RP): MMP9 tetramers from unique substrates, unrounded values
[1] = RP of the P3-P1' tetramer cluster contained in the hexamer, 200 nM MMP-2, 2 h, 37°C, two rounds of selection
[2] = MMP9, RP of the P3-P1' tetramer contained in the hexamer substrate (substrate phage display, NGS)
[3] = RP of the P3-P1' tetramer, MMP2 substrate phage display/NGS, tetramers of physiologic MEROPS substrates common to MMP2 and MMP9
[4] = RP of the P3-P1' tetramer, MMP9 substrate phage display/NGS, tetramers of physiologic MEROPS substrates common to MMP2 and MMP9
[5] = MMP2, RP of matching P3-P1' tetramer, common set of MMP2-9 selectome, RP above KL threshold
[6] = RP of matching tetramer, common MMP2-9 selectome
[7] = MMP9, RP of matching P3-P1' tetramer, common set of MMP2-9 selectome
[8] = MMP9, RP of the P3-P1' tetramer matching the MS detected cleavage, RP above 4.7, substrate phage display with NGS
[9] = RP of matching tetramer, common MMP2-9 selectome, RP above KL threshold
[10] = RP according to MMP9, P3-P1' tetramer of unique physiologic MMP9 substrates from MEROPS
[11] = tetramer projected onto MMP-9 cleavage sites determined by Prudova et al. (2010)
[12] = average relative probability of the tetramer, redundant tetramers averaged out
[13] = RP according to MMP2, P3-P1' tetramer of unique physiologic MMP2 substrates from MEROPS

## MGPLGQ
MMP-2; [1]
  relative probability (RP): 28.8115
MMP-9; [2]
  relative probability (RP): 44.3652

## PIQLQS
MMP-2; [1]
  relative probability (RP): 19.2979
MMP-9; [2]
  relative probability (RP): 35.2784

## PAPNSL
MMP-2; [1]
  relative probability (RP): 24.6338
MMP-9; [2]
  relative probability (RP): 34.9686

## SFGL
MMP-2
  corresponding MMP2 relative probability (RP): 10.7897
MMP-2; [3]
  relative probability (RP) (acc.to MMP2): 0.19
MMP-9
  MMP9 relative probability (RP): 0.1902
MMP-9; [4]
  relative probability (RP) (acc.to MMP9): 10.79

## LREL
MMP-2; [5]
  relative probability (RP) (acc.to MMP2): 21.53
MMP-2
  relative probability (RP) of matching tetramer: 21.53
MMP-2; [6]
  relative probability (RP) (acc.to MMP2): 21.53
MMP-9; [7]
  relative probability (RP) (acc.to MMP9): 21.21
MMP-9; [8]
  relative probability (RP): 21.21
MMP-9; [9]
  relative probability (RP) (acc.to MMP9): 21.21

## TGLT
MMP-2; [3]
  relative probability (RP) (acc.to MMP2): 0.24
MMP-9; [10]
  Relative probability (RP) rank: 41284
  relative probability (RP): 0.21
MMP-9; [4]
  relative probability (RP) (acc.to MMP9): 0.21

## SLPQ
MMP-2; [3]
  relative probability (RP) (acc.to MMP2): 0.51
MMP-9; [4]
  relative probability (RP) (acc.to MMP9): 0.1

## PQPEGL
MMP-2; [1]
  relative probability (RP): 29.5031
MMP-9; [2]
  relative probability (RP): 39.4116

## ALYL
MMP-2
  corresponding MMP2 relative probability (RP): 5.662
MMP-9
  MMP9 relative probability (RP): 1.807

## PRPFHH
MMP-2; [1]
  relative probability (RP): 32.5323
MMP-9; [2]
  relative probability (RP): 43.6397

## PAAV
MMP-2; [6]
  relative probability (RP) (acc.to MMP2): 30.72
MMP-9; [8]
  relative probability (RP): 36.05
MMP-9; [9]
  relative probability (RP) (acc.to MMP9): 36.05

## PYGIKG
MMP-2; [1]
  relative probability (RP): 28.2788
MMP-9; [2]
  relative probability (RP): 49.5245

## PHGYKG
MMP-2; [1]
  relative probability (RP): 24.9359
MMP-9; [2]
  relative probability (RP): 44.1642

## PENF
MMP-2; [3]
  relative probability (RP) (acc.to MMP2): 16
MMP-9; [4]
  relative probability (RP) (acc.to MMP9): 20.05
MMP-9; tetramer annotation of MMP-9 cleavage sites in physiologic substrates from MEROPS
  relative probability (RP): 20.05

## KPVNMT
MMP-2; [1]
  relative probability (RP): 30.0312
MMP-9; [2]
  relative probability (RP): 44.4072

## PPPL
MMP-2; [5]
  relative probability (RP) (acc.to MMP2): 13.03
MMP-2
  relative probability (RP) of matching tetramer: 13.03
MMP-2; [6]
  relative probability (RP) (acc.to MMP2): 13.03
MMP-9; [7]
  relative probability (RP) (acc.to MMP9): 14.18
MMP-9; [8]
  relative probability (RP): 14.18
MMP-9; [9]
  relative probability (RP) (acc.to MMP9): 14.18

## PPGL [P3-P1' tetramer cluster]
MMP-2; [3]
  relative probability (RP) (acc.to MMP2): 24.36
MMP-9; [4]
  relative probability (RP) (acc.to MMP9): 34.4
MMP-9; [11]
  relative probability (RP): 34.4

## NEGL
MMP-2; [3]
  relative probability (RP) (acc.to MMP2): 0.16
MMP-9; [4]
  relative probability (RP) (acc.to MMP9): 0

## PLTL
MMP-2; average relative probability of the P3-P1' tetramer, redundant tetramers have been averaged out
  avg_RP: 24.2603
MMP-2; [5]
  relative probability (RP) (acc.to MMP2): 24.26
MMP-2
  relative probability (RP) of matching tetramer: 24.26
MMP-2; [6]
  relative probability (RP) (acc.to MMP2): 24.26
MMP-9; [7]
  relative probability (RP) (acc.to MMP9): 41.2
MMP-9; [8]
  relative probability (RP): 41.2
MMP-9; [9]
  relative probability (RP) (acc.to MMP9): 41.2

## AAAL
MMP-2; [5]
  relative probability (RP) (acc.to MMP2): 31.4
MMP-2
  relative probability (RP) of matching tetramer: 31.4
MMP-2; [6]
  relative probability (RP) (acc.to MMP2): 31.4
MMP-2; tetramer annotation of MMP-2 cleavage sites in all substrates from MEROPS
  relative probability (RP): 31.4
MMP-9; [7]
  relative probability (RP) (acc.to MMP9): 32.12
MMP-9; [8]
  relative probability (RP): 32.12
MMP-9; [9]
  relative probability (RP) (acc.to MMP9): 32.12

## QRGI
MMP-2; [12]
  avg_RP: 7.4836
MMP-2; MMP2 tetramers from unique substrates, unrounded values
  MMP2 relative probability (RP): 7.484
MMP-2; [13]
  Relative probability (RP) rank: 6090
  relative probability (RP): 7.48
MMP-2; [3]
  relative probability (RP) (acc.to MMP2): 7.48
MMP-9; MMP2 tetramers from unique substrates, RP of same tetramer for MMP9
  corresponding MMP9 relative probability (RP): 0.7406
MMP-9; [10]
  Relative probability (RP) rank: 19198
  relative probability (RP): 0.74
MMP-9; [4]
  relative probability (RP) (acc.to MMP9): 0.74

## LAEL [P3-P1' tetramer cluster]
MMP-2; [12]
  avg_RP: 27.078
MMP-9; [11]
  relative probability (RP): 0.44

## TQPKAM
MMP-2; [1]
  relative probability (RP): 31.5595
MMP-9; [2]
  relative probability (RP): 48.8005

## IANL
MMP-2; average relative probability (RP) of the P3-P1' tetramer, redundant tetramers have been averaged out
  avg_RP: 33.8805
MMP-2; [5]
  relative probability (RP) (acc.to MMP2): 33.88
MMP-2
  relative probability (RP) of matching tetramer: 33.88
MMP-2; [6]
  relative probability (RP) (acc.to MMP2): 33.88
MMP-9; [7]
  relative probability (RP) (acc.to MMP9): 21.07
MMP-9; [8]
  relative probability (RP): 21.07
MMP-9; [9]
  relative probability (RP) (acc.to MMP9): 21.07

## PVNV
MMP-2; [6]
  relative probability (RP) (acc.to MMP2): 19.63
MMP-9; [8]
  relative probability (RP): 24.66
MMP-9; [9]
  relative probability (RP) (acc.to MMP9): 24.66

## KSPQAM
MMP-2; [1]
  relative probability (RP): 28.5429
MMP-9; [2]
  relative probability (RP): 47.1106

## QGPAAI
MMP-2; [1]
  relative probability (RP): 32.0972
MMP-9; [2]
  relative probability (RP): 46.1642

## PTPKAL
MMP-2; [1]
  relative probability (RP): 34.4858
MMP-9; [2]
  relative probability (RP): 48.3581

## IHSL
MMP-2; [5]
  relative probability (RP) (acc.to MMP2): 6.87
MMP-2
  relative probability (RP) of matching tetramer: 6.87
MMP-9; [7]
  relative probability (RP) (acc.to MMP9): 4.86

## PMFI
MMP-2; [6]
  relative probability (RP) (acc.to MMP2): 8.26
MMP-9; [8]
  relative probability (RP): 35.87
MMP-9; [9]
  relative probability (RP) (acc.to MMP9): 35.87

## LPKPLR
MMP-2; [1]
  relative probability (RP): 33.5622
MMP-9; [2]
  relative probability (RP): 48.2599
